biological target: T1, IDO1 (Homo sapiens, UniProt P14902); experiment: IDO1 cell-based assay (HeLa cells, IFNgamma-induced, N-formylkynurenine/L-tryptophan by RFMS); conditions: 10 ng/mL IFNgamma, 24 hours
T1 construct: endogenous in cells; host or cells: HeLa cells (ATCC), IFNgamma-induced
Summary of the method: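 N-formylkynurenine and tryptophan peak areas in media measured by RFMS (C18, isocratic, d-Trp standard), giving IC50 values by regression. Source: HeLa cells incubated 24 h with IFNgamma (10 ng/mL) plus test compound at 0.5% DMSO; parallel CellTiter-Glo viability read.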

T1 sequence (P14902 whole entry): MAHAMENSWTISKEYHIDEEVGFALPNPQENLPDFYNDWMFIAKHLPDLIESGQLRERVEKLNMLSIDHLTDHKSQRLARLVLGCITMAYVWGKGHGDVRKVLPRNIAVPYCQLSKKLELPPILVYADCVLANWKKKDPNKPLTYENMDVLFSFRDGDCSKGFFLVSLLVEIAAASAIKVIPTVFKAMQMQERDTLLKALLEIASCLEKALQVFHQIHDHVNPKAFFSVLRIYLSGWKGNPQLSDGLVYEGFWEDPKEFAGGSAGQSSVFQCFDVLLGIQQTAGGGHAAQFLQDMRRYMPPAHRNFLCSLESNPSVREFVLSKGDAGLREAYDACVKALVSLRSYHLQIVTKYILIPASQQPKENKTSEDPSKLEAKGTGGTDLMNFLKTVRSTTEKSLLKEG

IC50 [nM] | SMILES
> 5000 | O=C(NC1C2CN(c3ccnc4ccc(F)cc34)CC21)C(CO)c1ccccc1 (stereo not shown) [Compound 110, N-(3-(6-fluoroquinolin-4-yl)-3-azabicyclo[3.1.0]hexan-6-yl)-3-hydroxy-2-phenylpropanamide]
< 200 | CCC(NC(=O)c1ccc(Cl)cc1)[C@H]1[C@@H]2C[C@@H](Nc3ccc(C#N)cc3[N+](=O)[O-])C[C@@H]21 (stereo partly drawn) [Compound 269, 4-chloro-N-(1-((1R,3s,5S,6r)-3-((4-cyano-2-nitrophenyl)amino)bicyclo[3.1.0]hexan-6-yl)propyl)benzamide]
200 to 2000 | CCC(NC(=O)c1ccc(C#N)cn1)[C@H]1[C@@H]2C[C@@H](n3ncc(=O)c4ccccc43)C[C@@H]21 (stereo partly drawn) [Compound 83, 5-cyano-N-(1-((1R,3s,5S,6r)-3-(4-oxocinnolin-1(4H)-yl)bicyclo[3.1.0]hexan-6-yl)propyl)picolinamide]
< 200 | CCC(NC(=O)c1ccc(Cl)cc1)[C@H]1[C@@H]2C[C@@H](n3cc4cc(F)ccc4n3)C[C@@H]21 (stereo partly drawn) [Compound 207, 4-chloro-N-(1-((1R,3s,5S,6r)-3-(5-fluoro-2H-indazol-2-yl)bicyclo[3.1.0]hexan-6-yl)propyl)benzamide]
< 200 | CC(C(=O)Nc1ccc(Cl)cc1)[C@H]1[C@@H]2C[C@@H](Oc3cnnc4ccc(F)cc34)C[C@@H]21 (stereo partly drawn) [Compound 340, N-(4-chlorophenyl)-2-((1R,3s,5S,6r)-3-((6-fluorocinnolin-4-yl)oxy)bicyclo[3.1.0]hexan-6-yl)propanamide]
< 200 | CC[C@@H](NC(=O)c1ccc(Cl)cc1)[C@H]1[C@@H]2C[C@@H](c3ccnc4ccc(F)cc34)C[C@@H]21 [Compound 266, 4-chloro-N—((R)-1-((1R,3S,5S,6r)-3-(6-fluoroquinolin-4-yl)bicyclo[3.1.0]hexan-6-yl)propyl)benzamide]
< 200 | CC[C@@H](NC(=O)c1ccc(Cl)cc1)[C@H]1[C@@H]2C[C@@H](c3cnn(C4CC4)c3)C[C@@H]21 [Compound 292, 4-chloro-N—((R)-1-((1R,3S,5S, 6r)-3-(1-cyclopropyl-1H-pyrazol-4-yl)bicyclo[3.1.0]hexan-6-yl)propyl)benzamide]
< 200 | N#Cc1ccc(C(=O)NC[C@@H]2[C@H]3C[C@H](n4cnc5cc(F)c(F)cc54)C[C@@H]23)cc1 [Compound 302, 4-cyano-N-(((1R,3s,5S,6r)-3-(5,6-difluoro-1H-benzo[d]imidazol-1-yl)bicyclo[3.1.0]hexan-6-yl)methyl)benzamide]
< 200 | CC[C@@H](NC(=O)c1ccc(Cl)cc1)[C@H]1[C@@H]2C[C@@H](Nc3ccccc3C(=O)O)C[C@@H]21 [Compound 346, 2-(((1R,3S,5S,6r)-6-((R)-1-(4-chlorobenzamido)propyl)bicyclo[3.1.0]hexan-3-yl)amino)benzoic acid]
200 to 2000 | O=C(NC[C@@H]1[C@H]2CN(c3ncnc4ccc(F)cc34)C[C@@H]12)c1ccc(Cl)cc1 [Compound 280, 4-chloro-N-(((1R,5S,6s)-3-(6-fluoroquinazolin-4-yl)-3-azabicyclo[3.1.0]hexan-6-yl)methyl)benzamide]
< 200 | CC[C@@H](NC(=O)c1ccc(Cl)cc1)[C@H]1[C@@H]2C[C@@H](n3cc(C)cn3)C[C@@H]21 [Compound 330, 4-chloro-N-((R)-1-((1R,3S,5S,6r)-3-(4-methyl-1H-pyrazol-1-yl)bicyclo[3.1.0]hexan-6-yl)propyl)benzamide]
< 200 | CC[C@@H](NC(=O)c1ccc(C#N)cc1)[C@H]1[C@@H]2C[C@@H](c3ccnc4ccc(F)cc34)C[C@@H]21 [Compound 277, 4-cyano-N-((R)-1-((1R,3S,5S,6r)-3-(6-fluoroquinolin-4-yl)bicyclo[3.1.0]hexan-6-yl)propyl)benzamide]
200 to 2000 | CCC(NC(=O)c1ccc(Cl)cc1)[C@H]1[C@@H]2C[C@@H](n3cc(CO)nn3)C[C@@H]21 (stereo partly drawn) [Compound 146, 4-chloro-N-(1-((1R,3s,5S,6r)-3-(4-(hydroxymethyl)-1H-1,2,3-triazol-1-yl)bicyclo[3.1.0]hexan-6-yl)propyl)benzamide]
2000 to 5000 | O=C(NC(CCO)[C@H]1[C@@H]2C[C@@H](Oc3ncnc4ccc(F)cc34)C[C@@H]21)c1ccc(Cl)cc1 (stereo partly drawn) [Compound 137, 4-chloro-N-(1-((1R,3s, 5S, 6r)-3-((6-fluoroquinazolin-4-yl)oxy)bicyclo[3.1.0]hexan-6-yl)-3-hydroxypropyl)benzamide]
> 5000 | O=C(Cc1ccc(Cl)cc1)NC1C2CN(c3ccnc4ccc(F)cc34)CC21 (stereo not shown) [Compound 109, 2-(4-Chlorophenyl)-N-(3-(6-fluoroquinolin-4-yl)-3-azabicyclo[3.1.0]hexan-6-yl)acetamide]
< 200 | CCC(NC(=O)c1ccc(Cl)cc1)[C@H]1[C@@H]2C[C@@H](n3cnc4cc(Cl)ccc4c3=O)C[C@@H]21 (stereo partly drawn) [Compound 53, 4-chloro-N-(1-((1R,3s,5S,6r)-3-(7-chloro-4-oxoquinazolin-3(4H)-yl)bicyclo[3.1.0]hexan-6-yl)propyl)benzamide]
> 5000 | O=C(NC1C2CC(Oc3cc(C(F)(F)F)nc4ccc(F)cc34)CC21)c1ccc(Cl)cc1 (stereo not shown) [Compound 25, 4-chloro-N-(3-((6-fluoro-2-(trifluoromethyl)quinolin-4-yl)oxy)bicyclo[3.1.0]hexan-6-yl)benzamide]
200 to 2000 | Cc1cccc(C(=O)NC[C@@H]2[C@H]3C[C@H](n4cnc5cc(F)c(F)cc54)C[C@@H]23)c1 [Compound 323, N-(((1R,3s,5S,6r)-3-(5,6-difluoro-1H-benzo[d]imidazol-1-yl)bicyclo[3.1.0]hexan-6-yl)methyl)-3-methylbenzamide]
200 to 2000 | CCC(NC(=O)c1ccc(Cl)cc1)[C@H]1[C@@H]2C[C@@H](OC3CCOCC3)C[C@@H]21 (stereo partly drawn) [Compound 101, 4-chloro-N-(1-((1R,3s,5S,6r)-3-((tetrahydro-2H-pyran-4-yl)oxy)bicyclo[3.1.0]hexan-6-yl)propyl)benzamide]
200 to 2000 | CCC(NC(=O)c1ccc(Cl)cc1)[C@H]1[C@@H]2C[C@@H](NC(=O)N3CCOCC3)C[C@@H]21 (stereo partly drawn) [Compound 157, N-((1R,3s,5S,6r)-6-(1-(4-chlorobenzamido)propyl)bicyclo[3.1.0]hexan-3-yl)morpholine-4-carboxamide]
200 to 2000 | O=C(Nc1ccc(Cl)cc1)N[C@H]1[C@@H]2C[C@H](Oc3ccnc4ccc(F)cc34)C[C@@H]21 [Compound 29, 1-(4-chlorophenyl)-3-((1R,3r,5S,6r)-3-((6-fluoroquinolin-4-yl)oxy)bicyclo[3.1.0]hexan-6-yl)urea]
< 200 | CCC(NC(=O)c1ccc(Cl)cc1)[C@H]1[C@@H]2C[C@@H](Nc3c(F)cc(F)cc3[N+](=O)[O-])C[C@@H]21 (stereo partly drawn) [Compound 264, 4-chloro-N-(1-((1R,3s,5S,6r)-3-((2,4-difluoro-6-nitrophenyl)amino)bicyclo[3.1.0]hexan-6-yl)propyl)benzamide]
< 200 | CCC(NC(=O)c1ccc(Cl)cc1)[C@H]1[C@@H]2C[C@@H](Oc3cnnc4ccccc34)C[C@@H]21 (stereo partly drawn) [Compound 138, 4-chloro-N-(1-((1R,3r,5S,6r)-3-(cinnolin-4-yloxy)bicyclo[3.1.0]hexan-6-yl)propyl)benzamide]
< 200 | CCOC(=O)CC(NC(=O)c1ccc(Cl)cc1)[C@H]1[C@@H]2C[C@@H](Oc3ncnc4ccc(F)cc34)C[C@@H]21 (stereo partly drawn) [Compound 134, ethyl 3-(4-chlorobenzamido)-3-((1R,3s,5S,6r)-3-((6-fluoroquinazolin-4-yl)oxy)bicyclo[3.1.0]hexan-6-yl)propanoate]
< 200 | CC(NC(=O)c1ccc(C#N)cc1)[C@H]1[C@@H]2C[C@@H](n3cnc4cc(F)ccc4c3=O)C[C@@H]21 (stereo partly drawn) [Compound 120, 4-cyano-N-(1-((1R,3s,5S,6r)-3-(7-fluoro-4-oxoquinazolin-3(4H)-yl)bicyclo[3.1.0]hexan-6-yl)ethyl)benzamide]
200 to 2000 | COc1ccc(C(=O)NC[C@@H]2[C@H]3C[C@H](n4cnc5cc(F)c(F)cc54)C[C@@H]23)cn1 [Compound 318, N-(((1R,3s,5S,6r)-3-(5,6-difluoro-1H-benzo[d]imidazol-1-yl)bicyclo[3.1.0]hexan-6-yl)methyl)-6-methoxynicotinamide]
< 200 | C=C(C)c1cn([C@@H]2C[C@@H]3[C@H](C2)[C@H]3C(CC)NC(=O)c2ccc(Cl)cc2)nn1 (stereo partly drawn) [Compound 262, 4-chloro-N-(1-((1R,3S,5S,6r)-3-(4-(propen-2-yl)-1H-1,2,3-triazol-1-yl)bicyclo[3.1.0]hexan-6-yl)propyl)benzamide]
< 200 | CC[C@@H](NC(=O)c1ccc(Cl)cc1)[C@H]1[C@@H]2C[C@@H](Nc3cc(Cl)ccc3[N+](=O)[O-])C[C@@H]21 [Compound 284, 4-chloro-N-((R)-1-((1R,3S,5S,6r)-3-((5-chloro-2-nitrophenyl)amino)bicyclo[3.1.0]hexan-6-yl)propyl)benzamide]
< 200 | O=C(Cc1ccc(Cl)cc1)NC1[C@H]2C[C@H](Oc3ccnc4ccc(F)cc34)C[C@@H]12 (stereo partly drawn) [Compound 7, 2-(4-chlorophenyl)-N-((1R,3s,5S,6r)-3-((6-fluoroquinolin-4-yl)oxy)bicyclo[3.1.0]hexan-6-yl)acetamide]

SMILES | IC50 [nM]
CC[C@@H](NC(=O)c1ccc(Cl)cc1)[C@H]1[C@@H]2C[C@@H](Oc3cnnc4ccccc34)C[C@@H]21 [Compound 104, 4-chloro-N-((R)-1-((1R,3S,5S,6r)-3-(cinnolin-4-yloxy)bicyclo[3.1.0]hexan-6-yl)propyl)benzamide] | < 200
CC(NC(=O)c1ccc(C#N)cc1)[C@H]1[C@@H]2C[C@@H](NC(=O)c3ccccn3)C[C@@H]21 (stereo partly drawn) [Compound 143, N-((1R,3s,5S,6r)-6-(1-(4-cyanobenzamido)ethyl)bicyclo[3.1.0]hexan-3-yl)picolinamide] | < 200

Source: patent US11173145B2, “Compounds useful as inhibitors of indoleamine 2,3-dioxygenase and/or tryptophan dioxygenase” (Board of Regents, The University of Texas System, priority 2017, dated 2021)
